Source: patent publication US20150344540A1, “NOVEL GLP-1 RECEPTOR AGONISTS WITH CHOLESTEROL EFFLUX ACTIVITY” (NOVO NORDISK A/S, priority 2012, published 2015)
Where a SMILES comes first, the peptide text is derived from it. [ ]: non-standard residue; d: D form. Aib = CC(C)(N)C(=O)O

These compounds were tested on Mouse monocyte/macrophage cell line, RAW 264.7 (assay: Cholesterol efflux assay (3H-cholesterol, macrophage cell line)). Settings: RAW 264.7, 4 hrs incubation, 0.1% human serum albumin, ABCA1-mediated efflux.
Type: cell-based
With `CC[C@H](C)[C@H](NC(=O)[C@H](Cc1ccccc1)NC(=O)[C@H](CCC(=O)O)NC(=O)[C@H](CCCNC(=N)N)NC(=O)[C@@H](NC(=O)[C@H](C)NC(=O)[C@H](CCC(=O)O)NC(=O)[C@H](CCC(=O)O)NC(=O)[C@H](CCC(=O)O)NC(=O)[C@H](CCSC)NC(=O)[C@H](CCC(N)=O)NC(=O)[C@H](CCCCN)NC(=O)[C@H](CO)NC(=O)[C@H](CC(C)C)NC(=O)[C@H](CC(=O)O)NC(=O)[C@H](CO)NC(=O)[C@@H](NC(=O)[C@H](Cc1ccccc1)NC(=O)[C@@H](NC(=O)CNC(=O)[C@H](CCC(=O)O)NC(=O)C(C)(C)NC(=O)[C@@H](N)Cc1c[nH]cn1)[C@@H](C)O)[C@@H](C)O)C(C)C)C(=O)N[C@@H](CCC(=O)O)C(=O)N[C@@H](Cc1c[nH]c2ccccc12)C(=O)N[C@@H](CC(C)C)C(=O)N[C@@H](CCCCN)C(=O)N[C@@H](CC(N)=O)C(=O)N[C@@H](CCCCN)C(=O)NC(C)(C)C(=O)N[C@@H](CC(C)C)C(=O)N[C@@H](CCC(=O)O)C(=O)N[C@@H](Cc1ccccc1)C(=O)N[C@@H](CC(C)C)C(N)=O` [Compound 42, [Aib2,Glu21, Lvs29,Aib30,Leu31,Glu32,Phe33,Leu34]-Exendin-4-(1-34)-peptide amide] (H-H[Aib]EGTFTSDLSKQMEEEAVREFIEWLKNK[Aib]LEFL-NH2; N-terminus assumed) the “4 h Cholesterol Efflux Emax” value was 105%. `CC[C@H](C)[C@H](NC(=O)[C@H](Cc1ccccc1)NC(=O)[C@H](CCC(=O)O)NC(=O)[C@H](CCCCN)NC(=O)[C@@H](NC(=O)[C@H](CCCCN)NC(=O)[C@H](CCC(=O)O)NC(=O)CNC(=O)[C@H](CCC(=O)O)NC(=O)[C@H](CC(C)C)NC(=O)[C@H](Cc1ccc(O)cc1)NC(=O)[C@H](CO)NC(=O)[C@H](CO)NC(=O)[C@@H](NC(=O)[C@H](CC(=O)O)NC(=O)[C@H](CO)NC(=O)[C@@H](NC(=O)[C@H](Cc1ccccc1)NC(=O)[C@@H](NC(=O)CNC(=O)[C@H](CCC(=O)O)NC(=O)C(C)(C)NC(=O)[C@@H](N)Cc1c[nH]cn1)[C@@H](C)O)[C@@H](C)O)C(C)C)C(C)C)C(=O)N[C@@H](CCC(=O)O)C(=O)N[C@@H](Cc1c[nH]cn1)C(=O)N[C@@H](CC(C)C)C(=O)N[C@H](C(=O)N[C@@H](CCC(=O)O)C(=O)N[C@@H](CCCCN)C(=O)N[C@@H](Cc1ccccc1)C(=O)N[C@@H](CCCCN)C(=O)N[C@@H](CCC(=O)O)C(=O)N[C@@H](Cc1ccccc1)C(=O)N[C@@H](Cc1ccccc1)C(N)=O)C(C)C` [Compound 96, [Aib8,Glu23,Lys24,Val25,Glu30,His31,Glu34,Lys35,Phe36,Lys37]-GLP-1-(7-37)-peptidyl-Glu-Phe-Phe amide] (H-H[Aib]EGTFTSDVSSYLEGEKVKEFIEHLVEKFKEFF-NH2) was tested, and the “4 h Cholesterol Efflux Emax” value was 123%. With `CC[C@H](C)[C@H](NC(=O)[C@H](Cc1ccccc1)NC(=O)[C@H](CCC(=O)O)NC(=O)[C@H](CCCCN)NC(=O)[C@@H](NC(=O)[C@H](C)NC(=O)[C@H](CCC(=O)O)NC(=O)CNC(=O)[C@H](CCC(=O)O)NC(=O)[C@H](CC(C)C)NC(=O)[C@H](Cc1ccc(O)cc1)NC(=O)[C@H](CO)NC(=O)[C@H](CO)NC(=O)[C@@H](NC(=O)[C@H](CC(=O)O)NC(=O)[C@H](CO)NC(=O)[C@@H](NC(=O)[C@H](Cc1ccccc1)NC(=O)[C@@H](NC(=O)CNC(=O)[C@H](CCC(=O)O)NC(=O)C(C)(C)NC(=O)[C@@H](N)Cc1c[nH]cn1)[C@@H](C)O)[C@@H](C)O)C(C)C)C(C)C)C(=O)N[C@@H](C)C(=O)N[C@@H](Cc1c[nH]c2ccccc12)C(=O)N[C@@H](CC(C)C)C(=O)N[C@H](C(=O)N[C@@H](CCC(=O)O)C(=O)N[C@@H](CCCCN)C(=O)NC(C)(C)C(=O)N[C@@H](CC(C)C)C(=O)N[C@@H](CO)C(=O)N[C@@H](Cc1ccccc1)C(=O)N[C@@H](CC(C)C)C(N)=O)C(C)C` [Compound 88] (H-H[Aib]EGTFTSDVSSYLEGEAVKEFIAWLVEK[Aib]LSFL-NH2) the “4 h Cholesterol Efflux Emax” value was 69%. `CC[C@H](C)[C@H](NC(=O)[C@H](Cc1ccccc1)NC(=O)[C@H](CCC(=O)O)NC(=O)[C@H](CCCNC(=N)N)NC(=O)[C@H](C)NC(=O)[C@H](CCCNC(=N)N)NC(=O)[C@H](CCCCN)NC(=O)CNC(=O)[C@H](CCC(=O)O)NC(=O)[C@H](CC(C)C)NC(=O)[C@H](Cc1ccc(O)cc1)NC(=O)[C@H](CO)NC(=O)[C@H](CO)NC(=O)[C@@H](NC(=O)[C@H](CC(=O)O)NC(=O)[C@H](CO)NC(=O)[C@@H](NC(=O)[C@H](Cc1ccccc1)NC(=O)[C@@H](NC(=O)CNC(=O)[C@H](CCC(=O)O)NC(=O)C(C)(C)NC(=O)[C@@H](N)Cc1c[nH]cn1)[C@@H](C)O)[C@@H](C)O)C(C)C)C(=O)N[C@@H](C)C(=O)N[C@@H](Cc1c[nH]c2ccccc12)C(=O)N[C@@H](CC(C)C)C(=O)N[C@H](C(=O)N[C@@H](CCC(=O)O)C(=O)N[C@@H](CCCCN)C(=O)NC(C)(C)C(=O)N[C@@H](CCCCN)C(=O)N[C@@H](CCC(=O)O)C(=O)N[C@@H](Cc1ccccc1)C(=O)N[C@@H](CC(C)C)C(N)=O)C(C)C` [Compound 52, [Aib8,Lys23,Arq24,Arq26,Glu34,Lys35,Aib36,Lys37]-GLP-1-(7-37)-peptidyl-Glu-Phe-Leu amide] (H-H[Aib]EGTFTSDVSSYLEGKRAREFIAWLVEK[Aib]KEFL-NH2) was tested, and the “4 h Cholesterol Efflux Emax” value was 98%. For `CC[C@H](C)[C@H](NC(=O)[C@H](Cc1ccccc1)NC(=O)[C@H](CCC(=O)O)NC(=O)[C@H](CCCCN)NC(=O)[C@@H](NC(=O)[C@H](C)NC(=O)[C@H](CCCCN)NC(=O)CNC(=O)[C@H](CCC(=O)O)NC(=O)[C@H](CC(C)C)NC(=O)[C@H](Cc1ccc(O)cc1)NC(=O)[C@H](CO)NC(=O)[C@H](CO)NC(=O)[C@@H](NC(=O)[C@H](CC(=O)O)NC(=O)[C@H](CO)NC(=O)[C@@H](NC(=O)[C@H](Cc1ccccc1)NC(=O)[C@@H](NC(=O)CNC(=O)[C@H](CCC(=O)O)NC(=O)C(C)(C)NC(=O)[C@@H](N)Cc1c[nH]cn1)[C@@H](C)O)[C@@H](C)O)C(C)C)C(C)C)C(=O)N[C@@H](C)C(=O)N[C@@H](Cc1c[nH]c2ccccc12)C(=O)N[C@@H](CC(C)C)C(=O)N[C@H](C(=O)N[C@@H](CCC(=O)O)C(=O)N[C@@H](CCCCN)C(=O)NC(C)(C)C(=O)N[C@@H](CCCCN)C(=O)N[C@@H](CCC(=O)O)C(=O)N[C@@H](Cc1ccccc1)C(=O)N[C@@H](CC(C)C)C(N)=O)C(C)C` [Compound 90, [Aib8,Lys23,Val25,Glu34,Lys35,Aib36,Lys37]-GLP-1-(7-37)-peptidyl-Glu-Phe-Leu amide] (H-H[Aib]EGTFTSDVSSYLEGKAVKEFIAWLVEK[Aib]KEFL-NH2; N-terminus assumed), the “4 h Cholesterol Efflux Emax” value was 110%. With “H-HGEGTFTSDVSSYLEGEAVKEFIAWLVEKVKEFLG-OH [Compound 92, [Gly8,Glu23,Val25,Glu34,Lys35,Val36,Lys37]-GLP-1-(7-37)-peptidyl-Glu-Phe-Leu-Gly]” the “4 h Cholesterol Efflux Emax” value was 129%. In the case of `CC[C@H](C)[C@H](NC(=O)[C@H](Cc1ccccc1)NC(=O)[C@H](CCC(N)=O)NC(=O)[C@H](CCCCN)NC(=O)[C@@H](NC(=O)[C@H](C)NC(=O)[C@H](CCC(N)=O)NC(=O)CNC(=O)[C@H](CCC(=O)O)NC(=O)[C@H](CC(C)C)NC(=O)[C@H](Cc1ccc(O)cc1)NC(=O)[C@H](CO)NC(=O)[C@H](CO)NC(=O)[C@@H](NC(=O)[C@H](CC(=O)O)NC(=O)[C@H](CO)NC(=O)[C@@H](NC(=O)[C@H](Cc1ccccc1)NC(=O)[C@@H](NC(=O)CNC(=O)[C@H](CCC(=O)O)NC(=O)C(C)(C)NC(=O)[C@@H](N)Cc1c[nH]cn1)[C@@H](C)O)[C@@H](C)O)C(C)C)C(C)C)C(=O)N[C@@H](C)C(=O)N[C@@H](Cc1c[nH]c2ccccc12)C(=O)N[C@@H](CC(C)C)C(=O)N[C@H](C(=O)N[C@@H](CC(N)=O)C(=O)N[C@@H](CCCCN)C(=O)NC(C)(C)C(=O)N[C@@H](C)C(=O)N[C@@H](CCC(=O)O)C(=O)N[C@@H](Cc1ccccc1)C(=O)N[C@@H](CC(C)C)C(N)=O)C(C)C` [Compound 74] (H-H[Aib]EGTFTSDVSSYLEGQAVKQFIAWLVNK[Aib]AEFL-NH2), the “4 h Cholesterol Efflux Emax” value is reported as 91%. In the case of `CC[C@H](C)[C@H](NC(=O)[C@H](Cc1ccccc1)NC(=O)[C@H](CCC(=O)O)NC(=O)[C@H](CCCNC(=N)N)NC(=O)[C@@H](NC(=O)[C@H](C)NC(=O)[C@H](CCC(=O)O)NC(=O)[C@H](CCC(=O)O)NC(=O)[C@H](CCC(=O)O)NC(=O)[C@H](CCSC)NC(=O)[C@H](CCC(N)=O)NC(=O)[C@H](CCCCN)NC(=O)[C@H](CO)NC(=O)[C@H](CC(C)C)NC(=O)[C@H](CC(=O)O)NC(=O)[C@H](CO)NC(=O)[C@@H](NC(=O)[C@H](Cc1ccccc1)NC(=O)[C@@H](NC(=O)CNC(=O)[C@H](CCC(=O)O)NC(=O)C(C)(C)NC(=O)[C@@H](N)Cc1c[nH]cn1)[C@@H](C)O)[C@@H](C)O)C(C)C)C(=O)N[C@@H](CCC(=O)O)C(=O)N[C@@H](Cc1c[nH]c2ccccc12)C(=O)N[C@@H](CC(C)C)C(=O)N[C@@H](CCCCN)C(=O)N[C@@H](CC(N)=O)C(=O)N[C@@H](CCCCN)C(=O)NC(C)(C)C(=O)N[C@@H](CC(C)C)C(=O)N[C@@H](CCC(=O)O)C(=O)N[C@@H](Cc1ccccc1)C(=O)N[C@@H](CC(C)C)C(=O)N[C@@H](CCC(=O)O)C(=O)N[C@@H](CC(C)C)C(=O)N[C@@H](CC(C)C)C(N)=O` [Compound 29, [Aib2,Glu21,Lys29,Aib30,Leu31,Glu32,Phe33,Leu34,Glu35,Leu36,Leu371-Exendin-4-(1-37)-peptide amide], the “4 h Cholesterol Efflux Emax” value is reported as 81%.
